Source: PMC11012289, “The Discovery of New Inhibitors of Insulin-Regulated Aminopeptidase by a High-Throughput Screening of 400,000 Drug-like Compounds” (International Journal of Molecular Sciences, 2024)
Like-named read-outs stand apart in the source and are kept apart here.

Tests used:
IRAP [1] = biological target: T1, IRAP (Homo sapiens, UniProt Q9UIQ6); assay: Orthogonal absorbance IRAP assay (L-Leucine para-nitroanilide cleavage); format: biochemical; settings: for Absorbance pIC50 / IC50: 1 mM L-Leucine p-Nitroanilide, 120 min RT; for IC50: read-out: Absorbance pIC50 (converted)
T1 construct: The screen was performed with the soluble truncated IRAP enzyme; made in house
T1 sequence (Q9UIQ6 155-1025 limits assumed): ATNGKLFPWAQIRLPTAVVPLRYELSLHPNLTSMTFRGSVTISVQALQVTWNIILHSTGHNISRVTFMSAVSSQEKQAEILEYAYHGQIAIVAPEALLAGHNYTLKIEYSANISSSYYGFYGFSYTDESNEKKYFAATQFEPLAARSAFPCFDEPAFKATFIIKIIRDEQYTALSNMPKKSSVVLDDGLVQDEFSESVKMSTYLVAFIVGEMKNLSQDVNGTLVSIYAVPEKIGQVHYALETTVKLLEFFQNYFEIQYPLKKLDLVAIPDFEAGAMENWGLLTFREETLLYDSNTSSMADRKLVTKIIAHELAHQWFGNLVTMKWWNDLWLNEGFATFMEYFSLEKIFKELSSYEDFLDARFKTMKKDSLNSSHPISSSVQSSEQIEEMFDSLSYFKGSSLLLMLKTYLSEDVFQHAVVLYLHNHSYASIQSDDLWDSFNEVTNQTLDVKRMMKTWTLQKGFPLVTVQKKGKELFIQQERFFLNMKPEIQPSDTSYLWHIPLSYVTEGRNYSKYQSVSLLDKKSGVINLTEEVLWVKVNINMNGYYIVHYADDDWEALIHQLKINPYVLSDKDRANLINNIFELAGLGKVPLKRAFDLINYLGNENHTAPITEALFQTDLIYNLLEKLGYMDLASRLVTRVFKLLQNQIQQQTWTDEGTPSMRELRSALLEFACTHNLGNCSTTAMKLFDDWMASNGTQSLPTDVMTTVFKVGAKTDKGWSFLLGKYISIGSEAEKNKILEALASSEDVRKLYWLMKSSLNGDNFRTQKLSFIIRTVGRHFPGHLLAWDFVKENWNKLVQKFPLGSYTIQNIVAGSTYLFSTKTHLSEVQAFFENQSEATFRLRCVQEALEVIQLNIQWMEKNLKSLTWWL
From the text: The primary biochemical assay was developed to measure the enzymatic activity of IRAP. […] To establish an orthogonal assay, an alternative L-Leucine para-nitroanilide substrate was used, which IRAP turns over to L-Leucine and para-nitroaniline and is measurable by absorbance at 405 nm (Supplementary Figure S2B).
To ensure biochemically sound, optimal, robust, and affordable assay conditions for large-scale screening, several factors need to be considered. These include the final concentration of substrates, based on the determined substrate Km value; the assay kinetics and reaction linearity; achieving a minimal, rate limiting protein concentration; identifying optimal buffer additives and concentrations; the choice of assay plate type; the final assay volume per well; the stability of reagents; the magnitude and variance of the signal; and the potency and rank order of reference compounds. For both primary fluorescence and orthogonal absorbance assays, non-binding 1536-well assay plates were used, and 0.05% BSA was included in the assay buffer to minimize the issues associated with protein sticking to plastics. The substrate Km values were determined in two separate experiments using two different batches of IRAP protein. For this, the IRAP progress curve was monitored every 5 min for 2 h using an Envision multimode plate reader (PerkinElmer, Waltham, MA, USA). […] To evaluate if using substrate concentrations close to the determined Km values results in sufficient dynamic range within the linear range of the enzymatic reaction, Z′ and S/B were calculated for multiple time points up to 2.5 h in the presence and absence of reference compounds in both assays. The primary fluorescence assay reached an optimal Z′-value after 1 h when using 37.5 μM substrate (Supplementary Figure S5). For the absorbance, 2 h was required for the enzyme reaction time; however, using ~0.4 mM substrate was associated with increased assay variation and a poor Z′ (Supplementary Figure S6).
The orthogonal assay was performed in a black non-binding 1536-well plate (Corning 3728) and sealed with universal lids (Corning 3098). First, 20 nL of test compounds (4 mM) or 100% DMSO was dispensed into the 1536-well assay plates using an Echo acoustic liquid handler (Beckman Coulter). Then, 4 μL of protein working solution (5 × 10^−4 mg/mL) was dispensed to the negative control (min effect) and compound wells (final well concentration 2.5 × 10^−4 mg/mL) using the Certus Flex liquid dispenser (Fritz Gyger AG) and 4 μL assay buffer to the positive control wells (max effect) using the FLEXdrop (PerkinElmer). Next, 4 μL of 2 mM substrate working solution was dispensed into all wells using the FLEXdrop (final well concentration 1 mM). The assay plates were then centrifuged at 187.5× g for 30 s, incubated in the dark at RT for 120 min, and finally read on an Envision plate reader (PerkinElmer) (absorbance at 405 nm, 10 flashes per second). During the dose–response curve analysis in the orthogonal assay, 80 nL of compound (range 2.00 × 10^−3 M–2.74 × 10^−6 M) or 100% DMSO was dispensed into the assay plates using an Echo acoustic liquid handler (Beckman Coulter) with final well concentration range of 20 μM–27.4 nM compound and 1% DMSO.

[2] = set-up: method as in ELF screening history; settings: ref ELF screening history, cited from earlier work; for Enzyme Active: number of ELF enzyme screens in which the compound was active; for Targets active: number of ELF screens in which the compound was active; for Enzyme Active %: share of ELF enzyme targets screened; for Targets Active %: share of all ELF targets screened
IRAP [3] = biological target: T1, IRAP; assay: Thermal shift (TSA) IRAP assay; format: binding; settings: for TSA (∆°C), thermal shift of IRAP / ΔTm at 30 µM: screening hits at 30 µM, 1% DMSO
From the text: The Thermal shift assay (TSA) is a biophysical technique measuring protein thermal stability. The assay relies on a fluorescent dye that is quenched in an aqueous environment but fluoresces when de-solvated in non-polar environments, such as the hydrophobic pockets of proteins. The target protein is mixed with the dye and heated gradually until it becomes completely denatured; as it unfolds or melts, the dye binds to newly exposed hydrophobic regions of the protein, resulting in a significant increase in fluorescence emission detected by a PCR system. The melting temperature (Tm) is calculated from the protein melt curve, and changes in Tm (known as ΔTm) are correlated with changes in protein stability and ligand binding. […] For the TSA assay, vehicle (DMSO) or compound was dispensed into MicroAmp Endura optical qPCR plates at the desired volume using an Echo acoustic liquid handler. […] The plates were then centrifuged for 10 s at 1000 rpm and sealed with Clear PCR-compatible plate seals.

IRAP [4] = biological target: T1, IRAP; assay: Deselection fluorescence IRAP assay with 10 µM zinc; format: biochemical; settings: 10 µM ZnSO4 in assay buffer; for IC50: read-out: Fluorescence + Zn pIC50 (converted)
Protocol: To prepare the assay buffer (50 mM Tris-HCl pH 7.4, 150 mM NaCl, 0.1 mM PMSF, 0.05% BSA) of the primary and orthogonal assays, 1 M Tris-HCl was prepared by dissolving 60.57 g Trizma-base (Mw 121.14 g/mol) (Sigma 93362-250G) in 500 mL MQ water, and the pH was adjusted to 7.4 using 4 M HCl. The solution was filtered with a 0.45 μm filter and stored at room temperature (RT). Then, 2 M NaCl stock was prepared by dissolving 29.22 g NaCl (Mw 58.44 g/mol) (Sigma S7653-250G) in 250 mL MQ water. The solution was filtered with a 0.45 μm filter and stored at RT. Next, 100 mM Phenylmethanesulfonylfluoride (PMSF) stock was prepared by dissolving 1 g PMSF (Mw 174.19 g/mol) (Sigma 78830-1G) in 57.4 mL isopropanol (Sigma I9516-500ML) and stored at 4 °C. A 10% Bovine Serum Albumin (BSA) stock solution was prepared by dissolving 2 g BSA (Mw 66.5 kDa) (Sigma A7030-50G), which was dissolved in 20 mL MQ water. The solution was filtered with a 0.45 μm filter, aliquoted, and stored at −20 °C. For the deselection assay buffer (50 mM Tris-HCl pH 7.4, 150 mM NaCl, 0.1 mM PMSF, 0.05% BSA, 10 μM ZnSO4), 1 mM ZnSO4 solution was prepared by dissolving 28.8 mg ZnSO4 (Mw 287.56 g/mol) (Sigma Z0251-100G) in 100 mL MQ water. The solution was filtered with a 0.45 μm filter and stored at RT. For the TSA assay buffer (50 mM Tris HCL, 150 mM NaCl, pH 7.4), stocks of 1 M Tris HCL and 2 M NaCl were prepared as described above.

IRAP [5] = biological target: T1, IRAP; assay: Primary fluorescence IRAP assay (L-Leucine-7-amido-4-methylcoumarin cleavage); format: biochemical; settings: for Fluorescence pIC50 / IC50: 37.5 µM L-Leucine-7-amido-4-methylcoumarin, 60 min RT, dose-response 20 µM-27.4 nM; for IC50: read-out: Fluorescence IC50; for LipE: calculated from (pIC50Fluorescence − LogD); for LogEC50 (best-fit): log of concentration in M; for EC50: read-out: EC50 (best-fit)
From the text: The primary biochemical assay was developed to measure the enzymatic activity of IRAP.
To ensure biochemically sound, optimal, robust, and affordable assay conditions for large-scale screening, several factors need to be considered. […] For both primary fluorescence and orthogonal absorbance assays, non-binding 1536-well assay plates were used, and 0.05% BSA was included in the assay buffer to minimize the issues associated with protein sticking to plastics. The substrate Km values were determined in two separate experiments using two different batches of IRAP protein. For this, the IRAP progress curve was monitored every 5 min for 2 h using an Envision multimode plate reader (PerkinElmer, Waltham, MA, USA).
First, 10 nL of test compounds (4 mM) or 100% DMSO was dispensed into the 1536-well assay plates using an Echo acoustic liquid handler (Beckman Coulter, Brea, CA, USA). Then, 2 μL of protein working solution (5 × 10^−4 mg/mL) was dispensed to the negative control (min effect) and compound wells (final well concentration 2.5 × 10^−4 mg/mL) using a Certus Flex liquid dispenser (Fritz Gyger AG, Thun, Switzerland) and 2 μL assay buffer to the positive control wells (max effect) using a FLEXdrop (PerkinElmer, Waltham, MA, USA).
Figure S9. Reference compounds in Fluorescence IRAP assay with different end volumes in 1536-well format.
mg/ml) and 2 or 4 µL L -Leucine-7-amido-4-methylcoumarin (f.a.c.
Plates were measured on the Envision every 10 minutes for 140 minutes (data
shown up to 2 hours). %Effect was calculated using no protein as MAX effect (assay buffer was added instead of IRAP).

[6] = 1536-well format, steady-state velocity, read-out: Km (substrate)

Row | Compound | Absorbance pIC50 (IRAP [1]) | TSA (∆°C), thermal shift of IRAP (IRAP [3]) | Fluorescence + Zn pIC50 (IRAP [4]) | Fluorescence pIC50 (IRAP [5]) | IC50 (IRAP [5]) | LipE (IRAP [5]) | IC50 (IRAP [1]) | ΔTm at 30 µM (IRAP [3]) | IC50 (IRAP [4]) | Enzyme Active [2] | Targets active [2] | Enzyme Active % [2] | Targets Active % [2] | further results
1 | O=S(=O)(Nc1cccc(-c2nnn[nH]2)c1)c1cc(Cl)c(Cl)cc1Cl [I, reference compound] | – | – | – | – | – | – | – | – | – | – | – | – | – | stabilization of the thermal melting temperature of IRAP (IRAP [3]; 10-point half-log concentration series): dose-dependent and saturable; IRAP Tm (IRAP [3]; compound at 400 µM): 69.05 ± 0.17 °C; LogEC50 (best-fit) (IRAP [5]; 4 µl end volume, 30 min): -4.565; EC50 (IRAP [5]; 4 µl end volume, 30 min): 27.2 µM; LogEC50 (best-fit) (IRAP [5]; 4 µl end volume, 60 min): -4.541; EC50 (IRAP [5]; 4 µl end volume, 60 min): 28.8 µM; LogEC50 (best-fit) (IRAP [5]; 4 µl end volume, 90 min): -4.517; EC50 (IRAP [5]; 4 µl end volume, 90 min): 30.4 µM; LogEC50 (best-fit) (IRAP [5]; 4 µl end volume, 120 min): -4.5; EC50 (IRAP [5]; 4 µl end volume, 120 min): 31.6 µM; LogEC50 (best-fit) (IRAP [5]; 8 µl end volume, 30 min): -4.385; EC50 (IRAP [5]; 8 µl end volume, 30 min): 41.2 µM; LogEC50 (best-fit) (IRAP [5]; 8 µl end volume, 60 min): -4.449; EC50 (IRAP [5]; 8 µl end volume, 60 min): 35.6 µM; LogEC50 (best-fit) (IRAP [5]; 8 µl end volume, 90 min): -4.469; EC50 (IRAP [5]; 8 µl end volume, 90 min): 34 µM; LogEC50 (best-fit) (IRAP [5]; 8 µl end volume, 120 min): -4.427; EC50 (IRAP [5]; 8 µl end volume, 120 min): 37.4 µM
2 | Cc1cc(=O)oc2cc(NC(=O)[C@@H](N)CC(C)C)ccc12 [L-Leucine-7-amido-4-methylcoumarin, reference compound] | – | – | – | – | – | – | – | – | – | – | – | – | – | Km (IRAP [5]; [6]): 36.6 µM
3 | CC(C)C[C@H](N)C(=O)Nc1ccc([N+](=O)[O-])cc1 [L-Leucine p-Nitroanilide, reference compound] | – | – | – | – | – | – | – | – | – | – | – | – | – | Km (IRAP [1]; [6]): 380 µM

Now from value to molecule, other results behind:

Row | Absorbance pIC50 (IRAP [1]) | TSA (∆°C), thermal shift of IRAP (IRAP [3]) | Fluorescence + Zn pIC50 (IRAP [4]) | Fluorescence pIC50 (IRAP [5]) | IC50 (IRAP [5]) | LipE (IRAP [5]) | IC50 (IRAP [1]) | ΔTm at 30 µM (IRAP [3]) | IC50 (IRAP [4]) | Compound | Enzyme Active [2] | Targets active [2] | Enzyme Active % [2] | Targets Active % [2] | further results
4 | < 4.70 | 0.15 °C | 5.36 | 5.36 | 4.37 µM | 1.74 | – | – | – | O=C(N1CCCC1)C1(CNS(=O)(=O)c2cccc3ccccc23)CC12CCCCC2 (centres unmarked) [QHL37] | 5 | 7 | 12.2% | 9.3% | –
5 | – | – | – | – | 3.31 µM | 1.60 | 2.95 µM | 1.92 °C | 3.24 µM | O=C(Cc1cc(N2CCCCCC2)nc(-c2ccc(Cl)cc2)n1)NO [QHL29] | 10 | 14 | 11.8% | 10.2% | –
6 | – | – | – | – | 2.14 µM | 2.39 | 16.2 µM | -1.91 °C | 2 µM | COc1ccc([C@@H]2c3nnnn3CCN2CCCN(C)c2ccccc2)c(C)c1 [QHL13] | 12 | 19 | 14.1% | 13.2% | –
7 | 5.40 | 2.96 °C | 5.32 | 5.32 | 4.79 µM | 1.29 | – | – | – | NC(=O)CCc1ccc2c(c1)nc(N)n2Cc1ccc(-c2ccccc2)cc1 [QHL42] | 6 | 12 | 7.3% | 8.1% | –
8 | – | – | – | – | 0.71 µM | 2.51 | 2 µM | 4 °C | 0.676 µM | COc1ccc(S(=O)(=O)CCC(CCCc2ccccc2)C(=O)NO)cc1 (centres unmarked) [QHL4] | 3 | 5 | 3.2% | 3.4% | –
9 | – | – | – | – | 1.51 µM | 2.98 | > 20 µM | 0.15 °C | 1.58 µM | COc1cc(C(=O)N2CCc3n[nH]c(-c4cccs4)c3CC2)on1 [QHL9] | 2 | 4 | 4.9% | 5.3% | –
10 | 6.09 | 0.89 °C | 5.12 | 5.11 | 7.76 µM | 2.74 | – | – | – | CCn1c(=O)n(CC(=O)N(C)CCc2ccc(O)c3[nH]c(=O)sc23)c2ccccc21 [QHL45] | 5 | 11 | 6.0% | 7.9% | –
